Measurements from US9845306B2, “Cationic lipid” (Kyowa Hakko Kirin Co., Ltd., priority 2010, dated 2017).

Assay: Average particle diameter of the liposomes in each preparation (Zetasizer Nano ZS)
Assay type: physicochemical
Settings: liposome preparation of Example 118: compound/PEG-DMPE/DSPC/cholesterol with apo-b siRNA
From the text: Preparations were produced using the compounds obtained in Examples 1 to 117, as follows.
Anti-APO-B siRNA was used as the nucleic acid. Anti-APO-B siRNA suppresses expression of an apolipoprotein-B (hereinafter, “apo-b”) gene and has a sense strand with the base sequence 5′-GmUCAmUCACACmUGAAmUACCAAmU-3′ (the sugars attached to the bases appended with m are 2′-O-methyl-substituted riboses), and an antisense strand with the base sequence 5′-[…]-3′ (the 5′-end is phosphorylated). The sense strand and the antisense strand were obtained from Nippon EGT or Hokkaido System Science Co., Ltd., and annealed to prepare the nucleic acid (hereinafter, “apo-b siRNA”).
A solution comprising the constituent components of a lipid membrane was prepared by dissolving each of the weighed samples in 90 vol % ethanol in 8.947/1.059/5.708/13.697 mmol/L [compounds 1 to 117 obtained in Examples 1 to 117/1,2-dimyristoyl-sn-glycero-3-phosphoethanolamine-A-(methoxy(polyethylene glycol)-2000) (PEG-DMPE, N-(carbonylmethoxypolyethylene glycol 2000)-1,2-dimyristoyl-sn-glycero-3-phosphoethanolamine sodium salt, NOF Corporation)/distearoylphosphatidyl choline (DSPC, 1,2-distearoyl-sn-glycero-3-phosphocholine, NOF Corporation)/cholesterol (Avanti Polar Lipids)]. Separately, apo-b siRNA/distilled water (24 mg/mL) was diluted with a Tris-EDTA buffer (200 mM Tris-HCl, 20 mM EDTA, Invitrogen) and a 20 mM citric acid buffer (pH 5.0) to prepare a 1.5 mg/mL apo-b siRNA aqueous solution (2 mM Tris-EDTA buffer, pH 5.0).
The resulting lipid solution was heated to 37° C., and a […] portion was transferred to a preparation container. The apo-b siRNA aqueous solution (100 μL) was then added thereto while being stirred. Then, a 20 mM citric acid buffer (containing 300 mM NaCl, pH 6.0; 200 μL) was added to the lipid nucleic acid mixed suspension (200 μL) while being stirred. The siRNA concentration was brought to 10 μM by dropping a Dulbecco phosphate buffer (DPBS, Invitrogen; 662 μL), and preparations (compositions comprising compounds 1 to 117 and the nucleic acid) were obtained.
The average particle diameter of the liposomes in each preparation was measured with a particle diameter measurement device (Malvern; Zetasizer Nano ZS).

Compound	Particle diameter of Preparetion [nm]
CCCCC/C=C\C/C=C\CCCCCCCCCCOCC1CN(C(=O)[C@@H](N)CCCCN)C[C@H]1COCCCCCCCCCC/C=C\C/C=C\CCCCC (stereo partly drawn) [Compound 115, trans-1-((S)-2,6-Diaminohexanoyl)-3,4-bis(((11Z,14Z)-icos-11,14-dienyloxy)methyl) pyrrolidine]	152.8
CCCCC/C=C\C/C=C\CCCCCCCC(=O)OC1CN(CC(O)CO)C[C@H]1OC(=O)CCCCCCC/C=C\C/C=C\CCCCC (stereo partly drawn) [Compound 53, (3R,4R)-1-(2,3-diHydroxypropyl)pyrrolidine-3,4-diyl di((9Z,12Z)-octadec-9,12-enoate)]	152.4
CCCCC/C=C\C/C=C\CCCCCCCCO[C@H]1CN(C)C[C@@H]1OCCCCCCCC/C=C\C/C=C\CCCCC [Compound 50, (3S,4S)-1-Methyl-3,4-bis((9Z,12Z)-octadec-9,12-dienyloxy)pyrrolidine]	129.2
CCCCC/C=C\C/C=C\CCCCCCCC(=O)OC1CN(C(=O)CN)C[C@H]1OC(=O)CCCCCCC/C=C\C/C=C\CCCCC (stereo partly drawn) [Compound 65, (3R,4R)-1-(2-aminoacetyl)pyrrolidine-3,4-diyl di((9Z,12Z)-octadec-9,12-enoate)]	128.9
CCCCC/C=C\C/C=C\CCCCCCCCOC1CN(CC(O)COC)C[C@H]1OCCCCCCCC/C=C\C/C=C\CCCCC (stereo partly drawn) [Compound 55, 1-(3R,4R)-3,4-bis(((9Z,12Z)-Octadec-9,12-dienyloxy)pyrrolidine-1-yl)-3-methoxypropan-2-ol]	139.6
CCCCC/C=C\C/C=C\CCCCCCCC(=O)OC1CN(C(=O)[C@@H](N)CCCCN)C[C@H]1OC(=O)CCCCCCC/C=C\C/C=C\CCCCC (stereo partly drawn) [Compound 66, (3R,4R)-1-((S)-2,6-Diaminohexanoyl)pyrrolidine-3,4-diyl di((9Z,12Z)-octadec-9,12-enoate)]	137.4
CCCCC/C=C\C/C=C\CCCCCCCCOC1CN(CCCN(C)C)C[C@H]1OCCCCCCCC/C=C\C/C=C\CCCCC (stereo partly drawn) [Compound 59, (3R,4R)-1-(3-N,N-Dimethylaminopropyl)-3,4-bis((9Z,12Z)-octadec-9,12-dienyloxy)pyrrolidine]	116.7
CCCCC/C=C\C/C=C\CCCCCCCCO[C@@H]1CN(CC(C)O)C[C@H]1OCCCCCCCC/C=C\C/C=C\CCCCC (mixture of isomers) [Compound 54, 1-((3R,4R)-3,4-bis((9Z,12Z)-Octadec-9,12-dienyloxy)pyrrolidine-1-yl)propan-2-ol]	148.9
CCCCC/C=C\C/C=C\CCCCCCCCO[C@H]1CNC[C@@H]1OCCCCCCCC/C=C\C/C=C\CCCCC [Compound 43, (3S,4S)-3,4-bis((9Z,12Z)-Octadec-9,12-dienyloxy)pyrrolidine]	150.0
CCCCC/C=C\C/C=C\CCCCCCCCOC1CN(CCC(=O)N(C)C)C[C@H]1OCCCCCCCC/C=C\C/C=C\CCCCC (stereo partly drawn) [Compound 58, 3-((3R,4R)-3,4-bis((9Z,12Z)-Octadec-9,12-dienyloxy)pyrrolidin-1-yl)-N,N-dimethyl propanamide]	151.8

Same assay, conditions: preparations of Comparative Examples 1 to 8, made as in Example 118 with apo-b siRNA

Compound	average particle diameter of the liposomes in the preparation [nm]
CCCCCCCC/C=C\CCCCCCCC(=O)OCC(C[N+](C)(C)C)OC(=O)CCCCCCC/C=C\CCCCCCCC.[Cl-] (centres unmarked) [DOTAP, N-(2,3-di-(9-(Z)-octadecenoyloxy))-prop-1-yl-N,N,N-trimethylammonium chloride, reference compound]	104.0
CCCCCCCC/C=C\CCCCCCCCO[C@@H]1CN(Cc2ccccc2)C[C@H]1OCCCCCCCC/C=C\CCCCCCCC [Compound VI-4, (3R,4R)-1-Benzyl-3,4-bis((Z)-octadec-9-enyloxy)pyrrolidine, reference compound]	157.8
CCCCC/C=C\C/C=C\CCCCCCCC(=O)O[C@@H]1CN(C)C[C@H]1OC(=O)CCCCCCC/C=C\C/C=C\CCCCC [Compound A-3, (3R,4R)-1-Methylpyrrolidine-3,4-diyl di((9Z,12Z)-octadec-9,12-dienoate), reference compound]	141.0
CCCCCCCC/C=C\CCCCCCCC(=O)O[C@@H]1CN(C)C[C@H]1OC(=O)CCCCCCC/C=C\CCCCCCCC [Compound A-4, (3R,4R)-1-Methylpyrrolidine-3,4-diyl di((Z)-octadec-9-enoate), reference compound]	131.1
CCCCC/C=C\C/C=C\CCCCCCCC(=O)OCCN(C)CCOC(=O)CCCCCCC/C=C\C/C=C\CCCCC [Compound A-5, N-Methyl-N,N-bis(2-((9Z,12Z)-1-oxooctadec-9,12-dienyloxy)ethyl)amine, reference compound]	136.4
CCCCC/C=C\C/C=C\CCCCCCCCO[C@@H]1CN(Cc2ccccc2)C[C@H]1OCCCCCCCC/C=C\C/C=C\CCCCC [Compound VI-3, (3R,4R)-1-Benzyl-3,4-bis((9Z,12Z)-octadec-9,12-dienyloxy)pyrrolidine, reference compound]	167.8
CCCCCCCC/C=C\CCCCCCCC(=O)OCCN(C)CCOC(=O)CCCCCCC/C=C\CCCCCCCC [Compound A-6, N-Methyl-N,N-bis(2-((Z)-1-oxooctadec-9-enyloxy)ethyl)amine, reference compound]	139.5
